Like-named read-outs stand apart in the source and are kept apart here.
Key:
[1] = target: SARS-CoV-2 RBD peptide (Severe acute respiratory syndrome coronavirus 2, UniProt P0DTC2); experiment: biochemical; assay type: binding; conditions: for koff: read-out: RBD kdis; for kon: read-out: RBD kon
[2] = target: T1, ACE2 (Homo sapiens, UniProt Q9BYF1); experiment: Bio-layer interferometry, binding to immobilized ACE2-His; conditions: for koff: read-out: ACE2 kdis; for kon: read-out: ACE2 kon; for Kd: 1:1 binding model, KD = kdis/kon
T1 construct: purchased Sino Biological
T1 sequence (Q9BYF1 18-805): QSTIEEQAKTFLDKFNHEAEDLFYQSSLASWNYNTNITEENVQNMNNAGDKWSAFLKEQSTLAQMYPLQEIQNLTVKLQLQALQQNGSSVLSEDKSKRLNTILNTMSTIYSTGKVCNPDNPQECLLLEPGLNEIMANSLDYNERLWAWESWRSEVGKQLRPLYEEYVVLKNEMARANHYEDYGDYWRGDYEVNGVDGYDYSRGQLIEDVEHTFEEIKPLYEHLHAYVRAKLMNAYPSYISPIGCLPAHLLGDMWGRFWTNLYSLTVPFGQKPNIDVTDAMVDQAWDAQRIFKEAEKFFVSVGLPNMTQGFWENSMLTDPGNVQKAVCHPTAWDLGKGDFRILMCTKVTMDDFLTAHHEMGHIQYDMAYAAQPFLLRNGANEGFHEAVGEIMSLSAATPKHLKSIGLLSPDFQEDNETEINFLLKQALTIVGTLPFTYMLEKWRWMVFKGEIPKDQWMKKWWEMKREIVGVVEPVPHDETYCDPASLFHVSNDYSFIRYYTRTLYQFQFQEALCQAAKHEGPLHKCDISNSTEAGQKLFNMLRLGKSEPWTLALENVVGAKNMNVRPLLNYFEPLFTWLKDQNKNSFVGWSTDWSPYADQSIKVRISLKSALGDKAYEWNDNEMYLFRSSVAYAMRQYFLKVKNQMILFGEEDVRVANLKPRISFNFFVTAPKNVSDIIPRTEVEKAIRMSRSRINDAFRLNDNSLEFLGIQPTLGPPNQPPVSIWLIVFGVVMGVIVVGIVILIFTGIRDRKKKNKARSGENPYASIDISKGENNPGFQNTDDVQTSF

[3] = target: binding of RBD to ACE2 (Severe acute respiratory syndrome coronavirus 2, UniProt P0DTC2); experiment: biochemical; set-up: species or system SARS-CoV-2; human
[4] = association rate, bio-layer interferometry
[5] = dissociation rate, bio-layer interferometry

OC(c1cc(C(F)(F)F)nc2c(C(F)(F)F)cccc12)C1CCCCN1 (stereo not shown) [Mefloquine]
Kd ([1]; RBD KD (M)): 0.00605 M
koff [1]: 0.861 s⁻¹
kon [1]: 142 M⁻¹ s⁻¹
koff [2]: 0.0312 s⁻¹
kon [2]: 716 M⁻¹ s⁻¹

C=C[C@H]1C[N@@]2CC[C@H]1C[C@H]2[C@H](O)c1ccnc2ccc(OC)cc12 [Quinine]
interaction with the RBD (result in words) [1]: No interaction
kon [2, 4]: 877 M⁻¹ s⁻¹
Kd ([2]; bio-layer interferometry): 9.35 µM
koff [2, 5]: 0.00819 s⁻¹

COc1cc(/C=C/C(=O)CC(=O)/C=C/c2ccc(O)c(OC)c2)ccc1O [Curcumin]
interaction with the RBD (result in words) [1]: No interaction
kon [2, 4]: 600 M⁻¹ s⁻¹
Kd ([2]; bio-layer interferometry): 20.3 µM
koff [2, 5]: 0.0122 s⁻¹

C[C@H]1[C@H](N2CCSCC2)O[C@@H]2O[C@@]3(C)CC[C@H]4[C@H](C)CC[C@@H]1[C@@]24OO3 [Artemiside]
interaction with the RBD (result in words) [1]: No interaction
kon [2, 4]: 4290 M⁻¹ s⁻¹
Kd ([2]; bio-layer interferometry): 124 µM
koff [2, 5]: 0.533 s⁻¹

C[C@H]1[C@H](N2CCS(=O)(=O)CC2)O[C@@H]2O[C@@]3(C)CC[C@H]4[C@H](C)CC[C@@H]1[C@@]24OO3 [Artemisone]
IC50 [3]: 63.1 ± 9.63 µM
Kd ([1]; KD for RBD): 3.6e-07 M
Kd ([1]; RBD KD (M)): 3.63e-07 M
kon [1]: 8.4e+07 M⁻¹ s⁻¹
kon [2, 4]: 971 M⁻¹ s⁻¹
Kd ([2]; bio-layer interferometry): 681 µM
koff [2, 5]: 0.661 s⁻¹

C[C@H]1[C@H](OC(=O)CCC(=O)O)O[C@@H]2O[C@@]3(C)CC[C@H]4[C@H](C)CC[C@@H]1[C@@]24OO3 [Artesunate]
interaction with the RBD (result in words) [1]: No interaction
koff [2]: 0.0907 s⁻¹
kon [2]: 1290 M⁻¹ s⁻¹

COc1ccc2nc3cc(Cl)ccc3c(Nc3cc(CN4CCCC4)c(O)c(CN4CCCC4)c3)c2n1 [Pyronaridine]
IC50 [3]: 49.7 ± 4.19 µM
Kd ([1]; KD for RBD): 5.7e-05 M
Kd ([1]; RBD KD (M)): 5.68e-05 M
koff [1]: 0.0339 s⁻¹
kon [1]: 598 M⁻¹ s⁻¹
kon [2, 4]: 584 M⁻¹ s⁻¹
Kd ([2]; bio-layer interferometry): 51.3 µM
koff [2, 5]: 0.0299 s⁻¹

CCN(CC)Cc1cc(Nc2ccnc3cc(Cl)ccc23)ccc1O [Amodiaquine]
Kd ([2]; bio-layer interferometry): 31.3 µM

CN(C)c1ccc2nc3ccc(=[N+](C)C)cc-3sc2c1 [Methylene blue]
Kd ([2]; bio-layer interferometry): 475 µM

Reference: article PMC8537658 (Pharmaceuticals, 2021)
